The results in this text go back to US20210198318A1, “Methods and Compositions for Treating Diseases and Conditions Associated with Gonadotropin Releasing Hormone Receptor” (The Board of Regents of the University of Oklahoma, priority 2018, published 2021).

Non-standard residues stand in square brackets, D forms with d. Residues, ends and D or L forms follow the SMILES beside them. dPhe(4-Cl) = N[C@H](Cc1ccc(Cl)cc1)C(=O)O; d2Nal = N[C@H](Cc1ccc2ccccc2c1)C(=O)O; dCit = NC(=O)NCCC[C@@H](N)C(=O)O; d3Pal = N[C@H](Cc1cccnc1)C(=O)O

One assay concerns the target T1, GnRHR (Homo sapiens, UniProt P30968).
T1 construct: host or cells: Chem-1 cells
T1 sequence (P30968 1-328): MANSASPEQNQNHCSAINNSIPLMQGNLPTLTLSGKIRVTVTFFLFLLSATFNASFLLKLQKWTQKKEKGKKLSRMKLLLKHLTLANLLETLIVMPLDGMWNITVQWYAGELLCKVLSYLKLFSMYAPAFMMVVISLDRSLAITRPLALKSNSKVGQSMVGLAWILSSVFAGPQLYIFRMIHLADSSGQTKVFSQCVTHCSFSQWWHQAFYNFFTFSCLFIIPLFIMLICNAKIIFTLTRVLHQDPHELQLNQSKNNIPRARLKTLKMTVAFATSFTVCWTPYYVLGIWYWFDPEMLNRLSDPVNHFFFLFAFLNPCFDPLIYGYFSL
Briefly: GnRHR-transfected Chem-1 cell-based calcium flux assay. To be noted: for dosage at which the assay responds (relative Ca^2+ induced Fluo-8 NW fluorescence, % of maximal fluorescence): GnRHR-transfected cells, dosage response curve, n=4. As to the method:
Cell-based GnRHR-AAb Activity Assays: Activity of GnRHR AAb in IgG purified from sera of subjects with PCOS and controls were analyzed with a GnRHR-transfected Chem-1 cell-based calcium flux assay (Eurofins Scientific, USA). Briefly, Chem-1 cells were dispensed into 96-well plates and incubated 24 h, after which assay plates were washed sufficiently with Hank's Balanced Salt Solution (HBSS) supplemented with 20 mM HEPES, 2.5 mM Probenecid at pH 7.4 to remove all trace of Media. Component. Serum-derived IgG (0.1 mg/mL) was added in the presence and absence of the non-selective GnRHR blockade. Samples were tested in triplicate. FLUO-8®, AM Ca^2+ dye (Cat No: 21080, AAT Bioquest, Inc., Sunnyvale, Calif.) was prepared by dissolving 1 mg of Fluo-8 NW in […] and applied to the assay plate (Ca^2+ dye at 10 μL/10 mL is sufficient for loading one plate). Excitation wave length was set at 470-495 nm and emission wave length at 515-565 nm for Ca^2+ dyes. Maximal fluorescence signal was obtained by HIDEX Sense reader.
Methods Summary: Infertile PCOS subjects based on Rotterdam criteria and infertile ovulatory controls seen at an academic fertility clinic 2012-2016 were included in the study if they had stored serum prior to beginning treatment. Serum was screened by ELISA for AAbs to GnRHR using a synthetic 28-mer peptide from the ECL2 and ECL 1 of human GnRHR as coating antigen. Optical density (OD) values were read at 405 nm at 60 minutes. Activity of GnRHR AAb in sera and in IgG purified from sera of 4 subjects with PCOS and 4 controls was analyzed with a GnRHR-transfected Chem-1 cell-based calcium flux assay. AAb-specific effect was tested by GnRHR blockade. Group data are presented as mean±SD or percent. Groups were compared using Student t or Pearson chi-squared tests. An ROC curve was used to assess OD as a diagnostic test for PCOS.

The test system of another assay is Abs present in the sera. Briefly: Mimotope PIN ELISA with sequential GnRHR-ECL2 synthetic peptides and PCOS serum. The assay is classed as binding, human. To be noted: sera 1:200; 8-mer pins offset by two amino acids. As to the method: The peaks represent sites of increased binding by Abs present in the sera. The amino acid sequence for each pin is shown at the bottom. Representative PCOS with 2 dominant peaks. Each color bar represents the time of O.D. reading after addition of chromagen (30, 60, and 90 min).
A Mimotope PIN ELISA assay was performed on 11 PCOS subjects and 5 control subjects using sequential GnRHR-ECL2 synthetic peptides, each 8 amino acid residues in length, and each one different from the preceding peptide by addition of the next two C-terminal residues and removal of the last 2 N-terminal residues (see Table 1). The specific peptides were biochemically bonded to the tip of the pin that is attached to the 96 well plate cover in such a fashion that the peptides were immersed in the buffer/sera (1:200) mixture in the well. After incubation, the pins and wells were washed thoroughly, and the well mixture was then replaced by the anti-human-2nd AB (1:10,000) and incubated and washed again; the colorimetric agent was then added. The wells were sequentially counted at 10 min intervals, and values were compared for analysis of O.D. for each pin. The values and pin sequences are shown with time of reading in color code.

As to `CC(=O)N[C@H](Cc1ccc2ccccc2c1)C(=O)N[C@H](Cc1ccc(Cl)cc1)C(=O)N[C@H](Cc1cccnc1)C(=O)N[C@@H](CO)C(=O)N[C@@H](Cc1ccc(O)cc1)C(=O)N[C@H](CCCNC(N)=O)C(=O)N[C@@H](CC(C)C)C(=O)N[C@@H](CCCNC(=N)N)C(=O)N1CCC[C@H]1C(=O)N[C@H](C)C(N)=O` [cetrorelix] (Ac-[d2Nal][dPhe(4-Cl)][d3Pal]SY[dCit]LRP[dA]-NH2), the “effect on GnRHR activity (relative fluorescence, % of maximum fluorescence) of PCOS subjects” value on GnRHR (cetrorelix 10^−5M, 2-hour exposure, samples from PCOS subjects) is given as “suppressed the relative fluorescence expressed as % of maximum fluorescence to baseline”. Moreover, at GnRHR (cetrorelix 10^−5M, 2-hour exposure, samples from control subjects), the “effect on GnRHR activity (relative fluorescence, % of maximum fluorescence) of control subjects” value is listed as “not significantly changed”.
For `CCNC(=O)[C@@H]1CCCN1C(=O)[C@H](CCCNC(=N)N)NC(=O)[C@H](CC(C)C)NC(=O)[C@@H](CC(C)C)NC(=O)[C@H](Cc1ccc(O)cc1)NC(=O)[C@H](CO)NC(=O)[C@H](Cc1c[nH]c2ccccc12)NC(=O)[C@H](Cc1c[nH]cn1)NC(=O)[C@@H]1CCC(=O)N1` [leuprolide], the “total GnRHR activity of leuprolide in the presence of IgG purified from PCOS subjects versus buffer+leuprolide” value at GnRHR (GnRHR transfected cells, n=4, p<0.01) was “increased the total activity at least in an additive fashion”. The “dosage at which the assay responds (relative Ca^2+ induced Fluo-8 NW fluorescence, % of maximal fluorescence)” value at GnRHR is given as 10^−8 M.
Regarding “FSQCVTHC (listed as Homo sapiens) [SEQ ID NO:8]”, the “site of increased binding by Abs in PCOS sera (minipin ELISA peak)” value in the assay with Abs present in the sera is reported as “Overlapping Peak 1”.
With “VTHCSFSQ (listed as Homo sapiens) [SEQ ID NO:6]”, the “site of increased binding by Abs in PCOS sera (minipin ELISA peak)” value in the assay with Abs present in the sera is given as “Overlapping Peak 2”.
Consider “human Leutenizing Hormone Releasing Hormone [hLHRH]”, for which, in the assay with GnRHR, the “dosage at which the assay responds (relative Ca^2+ induced Fluo-8 NW fluorescence, % of maximal fluorescence)” value was 10^−9 M.
